From patent US12521373B2, “Use of losartan for the treatment of fibrotic diseases, in particular epidermolysis bullosa” (Crowd Pharma Losartan GmbH & Co. KG, priority 2020, dated 2026)

Columns and labels:
Assay type in all cases: in vivo, human
RDEB patients = experiment: Clinical trial in RDEB patients, overall outcome; conditions: second interim analysis, summary
Procedure: In order to check whether beneficial effects could be obtained in human beings, a clinical trial has been performed. In the trial a group of about 30 patients has been selected. Patient enrollment: 28 children with molecularly confirmed diagnosis of moderate to severe RDEB, age 2-16 years (age of 25 months), were enrolled at the EB Center Freiburg. […] Such parameters were measured in the course of the trial.

[1] = tested on: children with moderate to severe RDEB; experiment: Morphometric scoring of finger contractures (little span) in clinical trial; conditions: second interim analysis, FIG. 12
Procedure: During the ongoing clinical trial described in the preceding examples, an additional novel assessment parameter was added to measure progression of finger contractures: A morphometric scoring instrument that measures the length of the span when spreading fingers as far as possible. In particular, the following parameters were measured: maximal distance of thumb tip and index finger tip (separately for left hand and right hand and the mean value of both hands), also known as 'little span'. In RDEB, disease progression leads to shortening of the span and development of pseudosyndactylies and […] deformities.

[2] = tested on: children with moderate to severe RDEB; experiment: Itch Assessment Scale for the Pediatric Burn Patients in clinical trial; conditions: values at clinical visits after losartan initiation, FIG. 3
Source text: In order to check whether beneficial effects could be obtained in human beings, a clinical trial has been performed. In the trial a group of about 30 patients has been selected. Patient enrollment: 28 children with molecularly confirmed diagnosis of moderate to severe RDEB, age 2-16 years (age of 25 months), were enrolled at the EB Center Freiburg. The Itch Assessment Scale for the Pediatric Burn Patients, a validated instrument for assessing skin burns, which are similar to RDEB. The scale is based on the Itch Man Scale developed by Blakeney & Marvin (2000), and was used to evaluate the intensity of itch of the trial participants. […] Values taken at clinical visits were determined.

[3] = tested on: children with moderate to severe RDEB; experiment: Birmingham Epidermolysis Bullosa Severity Score (BEBS) in clinical trial; conditions: second interim analysis, baseline (clinic visit 1, day 1) vs clinic visit 5, week 40, FIG. 9
Source text: In order to check whether beneficial effects could be obtained in human beings, a clinical trial has been performed. In the trial a group of about 30 patients has been selected. Patient enrollment: 28 children with molecularly confirmed diagnosis of moderate to severe RDEB, age 2-16 years (age of 25 months), were enrolled at the EB Center Freiburg. […] Eleven items are scored: area of damaged skin, involvement of nails, mouth, eyes, larynx and esophagus, scarring of hands, skin cancer, chronic wounds, alopecia and nutritional compromise. The area of damaged skin is allocated 50 points, and the 10 other items 5 points each, giving a maximum score of 100. […] Therefore, an additional EB-specific scoring instrument was used.

[4] = tested on: CRP, IL6, Serum amyloid A and TNFα; experiment: Serum biomarkers of inflammation in clinical trial; conditions: over the trial, FIG. 8
Procedure: A blood sample for serum analysis was collected at all clinic visits. The analyses includes TGF levels, and biomarkers of inflammation and fibrosis, such as TNFα, CRP, ferritin, IL6 (FIG. 4) and amyloid. TGFβ and TNFα was analyzed by specific quantitative ELISAs (RayBiotech) at the EB Center Freiburg, while CRP, ferritin, IL6 and amyloid are measured at the central laboratories of the Medical Centers in Freiburg.

[5] = tested on: children with moderate to severe RDEB; experiment: Children's Dermatology Life Quality Index (CDLQI) in clinical trial
Source text: In order to check whether beneficial effects could be obtained in human beings, a clinical trial has been performed. In the trial a group of about 30 patients has been selected. Patient enrollment: 28 children with molecularly confirmed diagnosis of moderate to severe RDEB, age 2-16 years (age of 25 months), were enrolled at the EB Center Freiburg. The Children's Dermatology Life Quality Index (CDLQI) was used in addition, since it has a version for young children, age of >4, using cartoon images. It consists of 10 questions regarding how the skin disease has affected the patient's quality of life over the past 1 week, in each of 10 domains, with 4 possible responses graded 0-3 (range of scores 0-30).

[6] = tested on: children with moderate to severe RDEB; experiment: Epidermolysis Bullosa Disease Activity and Scarring Index (EBDASI) in clinical trial
Source text: In order to check whether beneficial effects could be obtained in human beings, a clinical trial has been performed. In the trial a group of about 30 patients has been selected. Patient enrollment: 28 children with molecularly confirmed diagnosis of moderate to severe RDEB, age 2-16 years (age of 25 months), were enrolled at the EB Center Freiburg. A validated scoring instrument for EB that assesses response to therapy separately from chronic damage. It is therefore suitable for interventional trials. […] It includes an activity and damage component for: 1. skin; 2. scalp; 3. mucous membranes; 4. nails; 5. other epithelialized surfaces (incl. larynx, esophagus, genitourinary), hands-pseudosyndactyly and skin cancer. Statistical values for EBDASI are shown in FIG. 2 when determined at the visits in the clinic.

[7] = tested on: children with moderate to severe RDEB; experiment: Quality of Life in EB (QOLEB) Questionnaire in clinical trial; conditions: first interim analysis, FIG. 7
Source text: In order to check whether beneficial effects could be obtained in human beings, a clinical trial has been performed. In the trial a group of about 30 patients has been selected. Patient enrollment: 28 children with molecularly confirmed diagnosis of moderate to severe RDEB, age 2-16 years (age of 25 months), were enrolled at the EB Center Freiburg. Although pain and itch scores partly reflect the patients' quality of life, specific scores were used. […] Therefore, children under the age of 10 years included their parents' advice when completing the questionnaires, and children under 8 years of age or unable to read, have the parents completed the questionnaire.

[8] = tested on: children with moderate to severe RDEB; experiment: Wong-Baker FACES Scale for Pain in clinical trial; conditions: first interim analysis, FIG. 6
Source text: In order to check whether beneficial effects could be obtained in human beings, a clinical trial has been performed. In the trial a group of about 30 patients has been selected. Patient enrollment: 28 children with molecularly confirmed diagnosis of moderate to severe RDEB, age 2-16 years (age of 25 months), were enrolled at the EB Center Freiburg. The Wong-Baker FACES Scale for Pain that uses happy or sad faces shown in the score http://wongbakerfaces.org/) is the preferred method of pain reporting by children. This validated tool is widely used to rate pain severity in children with both chronic and acute pain.

[9] = tested on: children with moderate to severe RDEB; experiment: Safety and tolerability in clinical trial (adverse events, blood pressure, heart function)
Procedure: Furthermore, the proPNB(pg/ml) was also measured on each visit to evaluate for signs of heart failure.

[10] = second interim analysis, FIG. 10
[11] = first interim analysis, after 18 patients had completed the study

CCCCc1nc(Cl)c(CO)n1Cc1ccc(-c2ccccc2-c2nnn[nH]2)cc1 [Losartan, 2-Butyl-4-chloro-1-[[2′-(1H-tetrazol-5-yl)[1,1-biphenyl]-4-yl]methyl]-1H-imidazol-5-methanol]
Disease progression (RDEB patients): reduced disease progression
Disease symptoms (RDEB patients): improved disease symptoms
Little span (distance between tip of the thumb and tip of the index finger) [1]: increase
Itch score [2]: a reduction of itch
BEBS [3]: improved
CRP [4]: went down
IL6 [4]: went down
Serum amyloid A [4]: went down
TNFα [4]: went down
Quality of life score CDLQI ([5]; first interim analysis, FIG. 7): improvement
CDLQI score ([5]; second interim analysis, baseline (clinic visit 1, day 1) vs clinic visit 5, week 40, FIG. 11): amelioration of the quality of life
EBDASI score ([6]; during treatment, clinic visit 1 to clinic visit 5, FIG. 2): improved substantially
EBDASI activity score ([6]; first interim analysis, FIG. 7): improved
EBDASI damage score ([6]; first interim analysis, FIG. 7): improved
EBDASI activity score [6, 10]: showed improvement
EBDASI damage score [6, 10]: showed improvement
EBDASI score [6, 10]: significantly improved
EBDASI total score (sum of activity and damage score) [6, 10]: showed improvement
Quality of life score QoLEB [7]: improvement
Pain assessment score [8]: went statistically to a lower level
Ejection fraction (heart's pump function) ([9]; first interim analysis): no differences
Adverse events related to the Losartan treatment [9, 11]: no adverse events had been observed
Overall safety and tolerability of treatment [9, 11]: safe and well tolerated
proPNB, signs of heart failure ([9]; measured on each visit): no significant changes
Impact on the blood pressure ([9]; normotensive patients, dosage regimen as disclosed): without negative impact
Number of adverse events possibly related to trial medication (pruritus, not serious) ([9]; second interim analysis): 1
Safety of treatment ([9]; second interim analysis): safe
